Assay results published in patent US20060276412A1, “METHODS AND COMPOSITIONS FOR MANAGING PSYCHOTIC DISORDERS” (priority 2005, published 2006).

Assays:
histaminic receptors = details: cited from earlier work
dopamine receptors = details: cited from earlier work
serotonin receptors = details: cited from earlier work
[1] = test system: alpha-adrenergic receptors; details: cited from earlier work
[2] = cited from earlier work
[3] = test system: norepinephrine (NE) in medial prefrontal cortex; test: Brain microdialysis: norepinephrine in mPFC; type: in vivo, rats; details: 3 mg/kg olanzapine
Text: (§1) 62 adult Sprague-Dawley male rats (Harland, Indianapolis) weighing 300-350 g were used in the following studies. The rats were quarantined for at least five days in group housing. Following the quarantine procedure, rats were maintained in individual cages. For surgical implantation with intracerebral guides, guides were inserted directly above either the hypothalamus (HT) (31 rats), or the medial prefrontal cortex (mPFC) (31 rats). Stereotaxic coordinates (Paxinos and Watson, 1986) provided below were used to position the guide cannulae and/or probes: Animals were anesthetiszed according using standard procedures. The head of each animal was shaved from the front of the eyes to the back of the skull. Shaved areas were disinfected, and the animals were placed in stereotaxic frame ear bars. The animal was aligned with the incisor bar. The animal's scalp was cut with a sharp #15 scalpel blade. If the bone began to bleed, bone wax was applied to the incision. Periosteal tissue was cleaned from the skull to the lateral ridges with a cotton swab, and clamps were used to pull the skin out of the way. The probe or guide was placed in the clamp, such that the angled outlet cannula of the microdialysis probe was angled towards the animal's tail. The target coordinates were calculated, and this point was marked on the skull. Two holes in opposing skull bones were drilled for bone anchor screws and thread screws. The dura was torn away with a sharp, pointed object. The guide cannulae were placed at the dorsal/ventral zero point. […] Using dental acrylic, the cannulae were cemented to the bone anchor screws. The cement was allowed to harden and the rodent was removed from the stereotaxic frame. The cranial and caudal aspects of the incision were sutured. The animals were allowed to recover for three to five days. Stylets in the guides were replaced with dialysis probes on the evening prior to study to allow for animal acclimation and to reestablish the integrity of the blood brain barrier. […] Rats were weighed pre-surgery, every 1-2 days post-surgery until time of microdialysis, and postmortem. Microdialysis probes used in the experiments described below were first soaked in standard Ringer's perfusion medium for 30 minutes. Inlet and outlet tubing was connected to each probe using flanged connectors. The outlet tubing was connected to a fraction collector, and the inlet was connected to and […] syringe drive. The probes were immersed in fresh Ringer's solution and flushed with Ringer's perfusion medium at a rate of 2 μl/min for 1 hour. The probe was then transferred to the intracerebral guide on the rat's skull. […] Water was added to obtain a final concentration of 0.3 mg/ml. […] Zonisamide was dissolved in DMSO. […] The final concentration of zonisamide was 7.5 mg/ml. The drug solution was maintained at 37° C. prior to injection. The rats were divided into ten test groups. Five animals were analyzed for each test group. The test groups were as follows: For the microdialysis experiments, perfusion consisted of 2 μl/min delivery of sterile standard Ringer's solution for intervals of 20 minutes. Final collection volumes were 40 μl. 30 μl samples were analyzed for each analyte: DA, NE, 5HT. 12 pre-dose samples and 12 post dose samples were collected every 20 minutes for a duration of 4 hours, both pre-dose and post-dose. Six samples from the pre-dose and post-dose collections were analyzed for norepinephrine. The remaining six samples from the pre-dose and post-dose collections were analyzed for both dopamine and serotonin. Samples were chilled to -80° C. immediately following collection. The samples were analyzed using liquid chromatography with electrochemical detection using conventional techniques. See, e.g., Huang, T., R. et al. (1994) New […] Microbore Columns for Liquid Chromatography. Current Separations 12(4): 191-195. […] Concentrations of each compound are expressed as % baseline.

[4] = test system: dopamine (DA) in medial prefrontal cortex; test: Brain microdialysis: dopamine in mPFC; type: in vivo, rats; details: 3 mg/kg olanzapine
Text: as §1

[5] = test system: dopamine (DA) in hypothalamus; test: Brain microdialysis: dopamine in hypothalamus; type: in vivo, rats; details: 3 mg/kg olanzapine
Text: as §1

[6] = test system: norepinephrine (NE) in hypothalamus; test: Brain microdialysis: norepinephrine in hypothalamus; type: in vivo, rats; details: 3 mg/kg olanzapine
Text: as §1

[7] = test system: serotonin (5HT) in medial prefrontal cortex; test: Brain microdialysis: serotonin in mPFC; type: in vivo, rats; details: 3 mg/kg olanzapine
Text: as §1

[8] = test system: serotonin (5HT) in hypothalamus; test: Brain microdialysis: serotonin in hypothalamus; type: in vivo, rats; details: 3 mg/kg olanzapine
Text: as §1

O=C1Cc2cc(CCN3CCN(c4nsc5ccccc45)CC3)c(Cl)cc2N1 [ziprasidone]
affinity for histaminic receptors (histaminic receptors): medium affinity | affinity for dopamine receptors (dopamine receptors): high affinity | affinity for serotonin receptors (serotonin receptors): high affinity | affinity for alpha-adrenergic receptors [1]: high affinity

Cc1cc2c(s1)Nc1ccccc1N=C2N1CCN(C)CC1 [olanzapine]
patients with a weight gain of ≧7% ([2]; analysis of four studies of various durations): 40% | time at which induced weight gain peaks ([2]; noticeable in the first month of treatment): about 9 months | affinity for histaminic receptors (histaminic receptors): lower affinity | Norepinephrine concentrations in mPFC ([3]; 3 HOUR AVE): 154.642 % baseline | Norepinephrine concentrations in mPFC ([3]; 20 min post dose): 162.923 % baseline | Norepinephrine concentrations in mPFC ([3]; 60 min post dose): 197.693 % baseline | Norepinephrine concentrations in mPFC ([3]; 100 min post dose): 159.929 % baseline | Norepinephrine concentrations in mPFC ([3]; 140 min post dose): 141.759 % baseline | Norepinephrine concentrations in mPFC ([3]; 180 min post dose): 147.978 % baseline | Norepinephrine concentrations in mPFC ([3]; 220 min post dose): 117.569 % baseline | Norepinephrine concentrations in mPFC ([3]; -40 min pre dose): 98.000 % baseline | Norepinephrine concentrations in mPFC ([3]; -80 min pre dose): 119.880 % baseline | Norepinephrine concentrations in mPFC ([3]; -120 min pre dose): 82.120 % baseline | affinity for dopamine receptors (dopamine receptors): high affinity | Dopamine concentrations in mPFC ([4]; 3 HOUR AVE): 209.94 % baseline | Dopamine concentrations in mPFC ([4]; 40 min post dose): 227.023 % baseline | Dopamine concentrations in mPFC ([4]; 80 min post dose): 266.655 % baseline | Dopamine concentrations in mPFC ([4]; 120 min post dose): 219.135 % baseline | Dopamine concentrations in mPFC ([4]; 160 min post dose): 186.256 % baseline | Dopamine concentrations in mPFC ([4]; 200 min post dose): 202.788 % baseline | Dopamine concentrations in mPFC ([4]; 240 min post dose): 153.048 % baseline | Dopamine concentrations in mPFC ([4]; -20 min pre dose): 105.509 % baseline | Dopamine concentrations in mPFC ([4]; -60 min pre dose): 119.009 % baseline | Dopamine concentrations in mPFC ([4]; -100 min pre dose): 75.482 % baseline | Dopamine concentrations in hypothalamus ([5]; 3 HOUR AVE): 125.98 % baseline | Dopamine concentrations in hypothalamus ([5]; 40 min post dose): 156.507 % baseline | Dopamine concentrations in hypothalamus ([5]; 80 min post dose): 110.363 % baseline | Dopamine concentrations in hypothalamus ([5]; 120 min post dose): 183.338 % baseline | Dopamine concentrations in hypothalamus ([5]; 160 min post dose): 89.032 % baseline | Dopamine concentrations in hypothalamus ([5]; 200 min post dose): 113.293 % baseline | Dopamine concentrations in hypothalamus ([5]; 240 min post dose): 95.959 % baseline | Dopamine concentrations in hypothalamus ([5]; -20 min pre dose): 99.830 % baseline | Dopamine concentrations in hypothalamus ([5]; -60 min pre dose): 93.473 % baseline | Dopamine concentrations in hypothalamus ([5]; -100 min pre dose): 106.697 % baseline | affinity for serotonin receptors (serotonin receptors): high affinity | Norepinephrine concentrations in hypothalamus ([6]; 3 HOUR AVE): 129.18 % baseline | Norepinephrine concentrations in hypothalamus ([6]; 20 min post dose): 161.934 % baseline | Norepinephrine concentrations in hypothalamus ([6]; 60 min post dose): 148.422 % baseline | Norepinephrine concentrations in hypothalamus ([6]; 100 min post dose): 115.418 % baseline | Norepinephrine concentrations in hypothalamus ([6]; 140 min post dose): 118.651 % baseline | Norepinephrine concentrations in hypothalamus ([6]; 180 min post dose): 113.533 % baseline | Norepinephrine concentrations in hypothalamus ([6]; 220 min post dose): 115.014 % baseline | Norepinephrine concentrations in hypothalamus ([6]; -40 min pre dose): 105.631 % baseline | Norepinephrine concentrations in hypothalamus ([6]; -80 min pre dose): 103.272 % baseline | Norepinephrine concentrations in hypothalamus ([6]; -120 min pre dose): 91.097 % baseline | affinity for alpha-adrenergic receptors [1]: lower affinity | Serotonin concentrations in mPFC ([7]; 3 HOUR AVE): 88.1078 % baseline | Serotonin concentrations in mPFC ([7]; 40 min post dose): 115.609 % baseline | Serotonin concentrations in mPFC ([7]; 80 min post dose): 101.724 % baseline | Serotonin concentrations in mPFC ([7]; 120 min post dose): 88.189 % baseline | Serotonin concentrations in mPFC ([7]; 160 min post dose): 92.085 % baseline | Serotonin concentrations in mPFC ([7]; 200 min post dose): 119.171 % baseline | Serotonin concentrations in mPFC ([7]; 240 min post dose): 83.828 % baseline | Serotonin concentrations in mPFC ([7]; -20 min pre dose): 98.453 % baseline | Serotonin concentrations in mPFC ([7]; -60 min pre dose): 100.982 % baseline | Serotonin concentrations in mPFC ([7]; -100 min pre dose): 100.565 % baseline | Serotonin concentrations in hypothalamus ([8]; 3 HOUR AVE): 89.0647 % baseline | Serotonin concentrations in hypothalamus ([8]; 40 min post dose): 89.816 % baseline | Serotonin concentrations in hypothalamus ([8]; 80 min post dose): 86.183 % baseline | Serotonin concentrations in hypothalamus ([8]; 120 min post dose): 92.131 % baseline | Serotonin concentrations in hypothalamus ([8]; 160 min post dose): 80.560 % baseline | Serotonin concentrations in hypothalamus ([8]; 200 min post dose): 98.707 % baseline | Serotonin concentrations in hypothalamus ([8]; 240 min post dose): 88.921 % baseline | Serotonin concentrations in hypothalamus ([8]; -20 min pre dose): 107.440 % baseline | Serotonin concentrations in hypothalamus ([8]; -60 min pre dose): 98.601 % baseline | Serotonin concentrations in hypothalamus ([8]; -100 min pre dose): 93.959 % baseline
